Patent US7256252B1, “Methods for detecting cell apoptosis” (Cephalon, Inc., priority 1996, dated 2007)

How the values were obtained:
[1] = system: Hippocampal neurons; assay type: cell-based; details: hippocampal neurons in primary culture, 3-nitropropionic acid applied
Excerpt: Similar results were obtained with other cells. Hippocampal neurons grown in primary culture were stimulated to die by application of the neurotoxic metabolic poison 3-nitropropionic acid.

[2] = system: HL60 cells; assay: Etoposide-triggered apoptotic proteolysis in HL60 cells (immunoblot); assay type: cell-based, human; details: 17 micromolar etoposide, 2 or 4 hours
Experimental: HL60 cells (obtained from the American Type Culture Collection, Rockville, Md.) were cultured using published techniques (Collins et al., Nature, 270:347-349 (1977), incorporated herein by reference). Cultures of cells were incubated with either 17 micromolar etoposide (from a 1000× stock solution made in dimethylsulfoxide) to trigger apoptosis or a vehicle. After either 2 or 4 hours, cells were lysed in ice cold 25 millimolar (mM) HEPES (pH 7.5), 5 mM MgCl2, 0.1% Triton X-100 and a cocktail of protease inhibitors (1 mM EGTA, 10 micrograms per ml of aprotinin, 10 micrograms per ml of leupeptin, 7 micrograms per ml of pepstatin A, 1 mM phenylmethylsulfonylfluoride (PMSF). The resulting cell lysates were subjected to SDS-polyacrylamide gel electrophoresis on 4-20% Tris-glycine gradient gels, and the separated proteins transferred to nitrocellulose membranes by Western blotting. The blots were immunostained with Ab127 ( 1/5,000) followed by incubation with alkaline phosphatase conjugated goat anti-rabbit IgG (Bio-Rad, Burlingame, Calif.) and visualized as described previously (Roberts-Lewis et al., J. Neurosci. 14:3934-3944 (1994), incorporated herein by reference).

Structure (SMILES) | apoptotic neurons by Hoechst 33258 nuclear stain [1] | level of about 30 kDa immunoreactive polypeptide [2]
O=C(O)CC[N+](=O)[O-] [3-nitropropionic acid] | presence of apoptotic neurons | –
COc1cc([C@@H]2c3cc4c(cc3[C@@H](O[C@@H]3O[C@@H]5CO[C@@H](C)O[C@H]5[C@H](O)[C@H]3O)[C@H]3COC(=O)[C@H]23)OCO4)cc(OC)c1O [etoposide] | – | increased with increasing time of cell exposure
